According to article PMC5218480 (PLoS ONE, 2017):

Tested on: MV-4-11 cells
Assay: Gene expression microarray analysis (Affymetrix PrimeView) and GSEA
Format: cell-based, human
Design: RFU PODN (11730768_x_at) / Fold change /veh PODN (11730768_x_at) / RFU LINC00158 (11744669_a_at) / Fold change /veh LINC00158 (11744669_a_at) / RFU DUSP10 (11751237_a_at) / Fold change /veh DUSP10 (11751237_a_at) / RFU ID3 (11757404_x_at) / Fold change /veh ID3 (11757404_x_at) / RFU PLEKHG5 (11737974_s_at) / Fold change /veh PLEKHG5 (11737974_s_at) / RFU LRRC4B (11730491_at) / Fold change /veh LRRC4B (11730491_at) / RFU GIMAP4 (11747438_a_at) / Fold change /veh GIMAP4 (11747438_a_at) / RFU KRT8 (11758183_x_at) / Fold change /veh KRT8 (11758183_x_at) / RFU CNN1 (11734310_a_at) / Fold change /veh CNN1 (11734310_a_at) / RFU VPS37D (11726825_at) / Fold change /veh VPS37D (11726825_at) / RFU C10orf10 (11716522_x_at) / Fold change /veh C10orf10 (11716522_x_at) / RFU KIR2DL2 /// KIR2DL4 /// KIR2DL5A /// KIR2DL5B /// KIR2DS1 /// KIR2DS2 /// KIR2DS3 /// KIR2DS4 /// KIR3DL3 /// KIR3DL3 /// KIR3DS1 (11738374_at) / Fold change /veh KIR2DL2 /// KIR2DL4 /// KIR2DL5A /// KIR2DL5B /// KIR2DS1 /// KIR2DS2 /// KIR2DS3 /// KIR2DS4 /// KIR3DL3 /// KIR3DL3 /// KIR3DS1 (11738374_at) / RFU C1QL1 (11718748_at) / Fold change /veh C1QL1 (11718748_at) / RFU TMPRSS4 (11747572_a_at) / Fold change /veh TMPRSS4 (11747572_a_at) / RFU HAMP (11756126_x_at) / Fold change /veh HAMP (11756126_x_at) / RFU RNFT2 (11725882_a_at) / Fold change /veh RNFT2 (11725882_a_at) / RFU NR4A2 (11747474_a_at) / Fold change /veh NR4A2 (11747474_a_at) / RFU ABCC12 (11746883_a_at) / Fold change /veh ABCC12 (11746883_a_at) / RFU TMEM136 (11760407_x_at) / Fold change /veh TMEM136 (11760407_x_at) / RFU CLDN22 /// WWC2 (11732394_at) / Fold change /veh CLDN22 /// WWC2 (11732394_at) / RFU HLA-DPB1 (11760878_x_at) / Fold change /veh HLA-DPB1 (11760878_x_at) / RFU SPINT1 (11716480_a_at) / Fold change /veh SPINT1 (11716480_a_at) / RFU GAP43 (11754022_s_at) / Fold change /veh GAP43 (11754022_s_at) / RFU A4GNT (11735810_at) / Fold change /veh A4GNT (11735810_at) / RFU PRB3 (11715151_x_at) / Fold change /veh PRB3 (11715151_x_at) / RFU TUBB4B (11761932_at) / Fold change /veh TUBB4B (11761932_at) / RFU CAPN14 (11732068_a_at) / Fold change /veh CAPN14 (11732068_a_at) / RFU TMCC2 (11721928_a_at) / Fold change /veh TMCC2 (11721928_a_at) / RFU IRGQ (11745062_a_at) / Fold change /veh IRGQ (11745062_a_at) / RFU FAM174B (11720279_a_at) / Fold change /veh FAM174B (11720279_a_at) / RFU TMPRSS4 (11748680_a_at) / Fold change /veh TMPRSS4 (11748680_a_at) / RFU FAM212B (11763350_a_at) / Fold change /veh FAM212B (11763350_a_at) / RFU PLEKHG5 (11743358_a_at) / Fold change /veh PLEKHG5 (11743358_a_at) / RFU ZSCAN30 (11745921_a_at) / Fold change /veh ZSCAN30 (11745921_a_at) / RFU CMKLR1 (11741424_a_at) / Fold change /veh CMKLR1 (11741424_a_at) / RFU LOC101060620 /// MAPK8IP1 (11723275_at) / Fold change /veh LOC101060620 /// MAPK8IP1 (11723275_at) / RFU SPTSSB (11747773_x_at) / Fold change /veh SPTSSB (11747773_x_at) / RFU PRSS12 (11739890_at) / Fold change /veh PRSS12 (11739890_at) / RFU BIN1 (11741810_x_at) / Fold change /veh BIN1 (11741810_x_at) / RFU WNT11 (11732464_a_at) / Fold change /veh WNT11 (11732464_a_at) / RFU C10orf10 (11716521_a_at) / Fold change /veh C10orf10 (11716521_a_at) / RFU C5orf56 (11738089_at) / Fold change /veh C5orf56 (11738089_at) / RFU CYB561 (11721691_x_at) / Fold change /veh CYB561 (11721691_x_at) / RFU ANKRD19P (11752326_a_at) / Fold change /veh ANKRD19P (11752326_a_at) / RFU OR2T12 /// OR2T33 /// OR2T8 (11738714_s_at) / Fold change /veh OR2T12 /// OR2T33 /// OR2T8 (11738714_s_at) / RFU VCAN (11748164_a_at) / Fold change /veh VCAN (11748164_a_at) / RFU JSRP1 (11732532_at) / Fold change /veh JSRP1 (11732532_at) / RFU KRTAP10-11 (11738290_x_at) / Fold change /veh KRTAP10-11 (11738290_x_at) / RFU MYO3A (11730013_a_at) / Fold change /veh MYO3A (11730013_a_at) / RFU EBF3 (11725865_a_at) / Fold change /veh EBF3 (11725865_a_at) / RFU CAMK2N1 (11719241_x_at) / Fold change /veh CAMK2N1 (11719241_x_at) / RFU C5orf56 (11738088_a_at) / Fold change /veh C5orf56 (11738088_a_at) / RFU OLFML3 (11715873_a_at) / Fold change /veh OLFML3 (11715873_a_at) / RFU LOC100653217 /// NTM (11731650_a_at) / Fold change /veh LOC100653217 /// NTM (11731650_a_at) / RFU MAPK11 (11762145_a_at) / Fold change /veh MAPK11 (11762145_a_at) / RFU FIZ1 (11724087_x_at) / Fold change /veh FIZ1 (11724087_x_at) / RFU OASL (11726364_x_at) / Fold change /veh OASL (11726364_x_at) / RFU SOX15 (11748057_x_at) / Fold change /veh SOX15 (11748057_x_at) / RFU CD79A (11719716_a_at) / Fold change /veh CD79A (11719716_a_at) / RFU HIST1H1D (11736915_at) / Fold change /veh HIST1H1D (11736915_at) / RFU CASKIN2 (11723855_a_at) / Fold change /veh CASKIN2 (11723855_a_at) / RFU LOC730098 (11760151_x_at) / Fold change /veh LOC730098 (11760151_x_at) / RFU OR4N2 (11742367_at) / Fold change /veh OR4N2 (11742367_at) / RFU PRRT2 (11749266_a_at) / Fold change /veh PRRT2 (11749266_a_at) / RFU SNX32 (11753110_a_at) / Fold change /veh SNX32 (11753110_a_at) / RFU CDHR5 (11726645_a_at) / Fold change /veh CDHR5 (11726645_a_at) / RFU RCAN1 (11760418_a_at) / Fold change /veh RCAN1 (11760418_a_at) / RFU FAM167A (11723789_a_at) / Fold change /veh FAM167A (11723789_a_at) / RFU FAM26E (11764081_at) / Fold change /veh FAM26E (11764081_at) / RFU ISYNA1 (11749810_s_at) / Fold change /veh ISYNA1 (11749810_s_at) / RFU ACY1 (11761880_at) / Fold change /veh ACY1 (11761880_at) / RFU 11764098_at / Fold change /veh 11764098_at / RFU SAMD14 (11745864_x_at) / Fold change /veh SAMD14 (11745864_x_at) / RFU NPB (11741838_a_at) / Fold change /veh NPB (11741838_a_at) / RFU TMPRSS6 (11731388_a_at) / Fold change /veh TMPRSS6 (11731388_a_at) / RFU KRTAP10-2 (11738614_at) / Fold change /veh KRTAP10-2 (11738614_at) / RFU ARHGAP8 /// PRR5-ARHGAP8 (11727945_x_at) / Fold change /veh ARHGAP8 /// PRR5-ARHGAP8 (11727945_x_at) / RFU KRTAP5-7 /// NADSYN1 (11734609_at) / Fold change /veh KRTAP5-7 /// NADSYN1 (11734609_at) / RFU RASL12 (11751679_a_at) / Fold change /veh RASL12 (11751679_a_at) / RFU CDKN2B (11736163_a_at) / Fold change /veh CDKN2B (11736163_a_at) / RFU PRF1 (11729649_at) / Fold change /veh PRF1 (11729649_at) / RFU, ZNF638 /// ZNF638-IT1 / Fold change vs veh, ZNF638 /// ZNF638-IT1 / RFU, PANK3 / Fold change vs veh, PANK3 / RFU, SH3YL1 / Fold change vs veh, SH3YL1 / RFU, ZEB2 / Fold change vs veh, ZEB2 / RFU, NRIP1 / Fold change vs veh, NRIP1 / RFU, PTTG1IP / Fold change vs veh, PTTG1IP / RFU, CAPN2 / Fold change vs veh, CAPN2 / RFU, MED14 / Fold change vs veh, MED14 / RFU, SNORA58 / Fold change vs veh, SNORA58 / RFU, C1orf63 / Fold change vs veh, C1orf63 / RFU, LRRFIP1 / Fold change vs veh, LRRFIP1 / RFU, NDUFAF7 / Fold change vs veh, NDUFAF7 / RFU, SLC12A2 / Fold change vs veh, SLC12A2 / RFU, IBTK / Fold change vs veh, IBTK / RFU, ESF1 / Fold change vs veh, ESF1 / Fold change vs veh, TMEM50B / RFU, TAOK1 / Fold change vs veh, TAOK1 / RFU, ACBD3 / Fold change vs veh, ACBD3 / RFU, TMA16 / Fold change vs veh, TMA16 / RFU, RWDD3 / Fold change vs veh, RWDD3 / RFU, BCAT1 / Fold change vs veh, BCAT1 / RFU, EDEM3 / Fold change vs veh, EDEM3 / RFU, TMEM33 / Fold change vs veh, TMEM33 / RFU, WDR75 / Fold change vs veh, WDR75 / RFU, AHCTF1 / Fold change vs veh, AHCTF1 / RFU, TFRC / Fold change vs veh, TFRC / RFU, ZDHHC17 / Fold change vs veh, ZDHHC17 / RFU, NOM1 / Fold change vs veh, NOM1 / RFU, ARL8B / Fold change vs veh, ARL8B / RFU, ZBTB11 / Fold change vs veh, ZBTB11 / RFU, TAMM41 / Fold change vs veh, TAMM41 / RFU, KIAA1704 /// LOC100996395 / Fold change vs veh, KIAA1704 /// LOC100996395 / RFU, ING1 / Fold change vs veh, ING1 / RFU, TRMT61B / Fold change vs veh, TRMT61B / RFU, FUBP3 / Fold change vs veh, FUBP3 / RFU, TP53 / Fold change vs veh, TP53 / RFU, TNKS2 / Fold change vs veh, TNKS2 / RFU, ZFP14 / Fold change vs veh, ZFP14 / RFU, ACTR2 / Fold change vs veh, ACTR2 / RFU, PPP3R1 / Fold change vs veh, PPP3R1 / RFU, PIK3R1 / Fold change vs veh, PIK3R1 / RFU, HNRNPA1 / Fold change vs veh, HNRNPA1 / RFU, RNF170 / Fold change vs veh, RNF170 / RFU, ZNF28 / Fold change vs veh, ZNF28 / RFU, RNGTT / Fold change vs veh, RNGTT / RFU, OGT / Fold change vs veh, OGT / RFU, BRD1 / Fold change vs veh, BRD1 / RFU, MARS / Fold change vs veh, MARS / RFU, ZNF655 / Fold change vs veh, ZNF655 / RFU, FAHD1 / Fold change vs veh, FAHD1 / RFU, BDP1 / Fold change vs veh, BDP1 / RFU, LRRCC1 / Fold change vs veh, LRRCC1 / RFU, ARID1A / Fold change vs veh, ARID1A / RFU, ZNF146 / Fold change vs veh, ZNF146 / RFU, ZNF330 / Fold change vs veh, ZNF330 / RFU, GPN3 / Fold change vs veh, GPN3 / RFU, C9orf123 / Fold change vs veh, C9orf123 / RFU, N4BP2L2 / Fold change vs veh, N4BP2L2 / RFU, ARFIP1 / Fold change vs veh, ARFIP1 / RFU, FAM179B / Fold change vs veh, FAM179B / RFU, BCL10 / Fold change vs veh, BCL10 / RFU, UHRF1BP1L / Fold change vs veh, UHRF1BP1L / RFU, BET1 / Fold change vs veh, BET1 / RFU, CNOT2 / Fold change vs veh, CNOT2 / RFU, ZNF268 / Fold change vs veh, ZNF268 / Fold change vs veh, ZNF507 / RFU, DGCR2 / Fold change vs veh, DGCR2 / RFU, WDSUB1 / Fold change vs veh, WDSUB1 / Fold change vs veh, HSP90B1 /// MIR3652 / RFU, ADSS / Fold change vs veh, ADSS / RFU, GK / Fold change vs veh, GK / RFU, ZNF148 / Fold change vs veh, ZNF148 / RFU, TAF9 / Fold change vs veh, TAF9 / RFU, SLC1A5 / Fold change vs veh, SLC1A5 / RFU, SLMO2 / Fold change vs veh, SLMO2 / RFU, ABCC4 / Fold change vs veh, ABCC4 / RFU, LOC101060439 /// RAP1B / Fold change vs veh, LOC101060439 /// RAP1B / RFU, RFX7 / Fold change vs veh, RFX7 / RFU, GTPBP10 / Fold change vs veh, GTPBP10 / RFU, CNEP1R1 / Fold change vs veh, CNEP1R1 / RFU, BIVM-ERCC5 /// ERCC5 / Fold change vs veh, BIVM-ERCC5 /// ERCC5 / RFU, ILF3 / Fold change vs veh, ILF3 / RFU 11762660_at / Fold change /veh 11762660_at / RFU VCAN (11757783_s_at) / Fold change /veh VCAN (11757783_s_at) / RFU DDX43 (11728927_at) / Fold change /veh DDX43 (11728927_at) / RFU KRT8 (11758188_x_at) / Fold change /veh KRT8 (11758188_x_at) / RFU NKD1 (11759106_at) / Fold change /veh NKD1 (11759106_at) / RFU SRD5A1 (11742802_a_at) / Fold change /veh SRD5A1 (11742802_a_at) / RFU TPSAB1 /// TPSB2 (11721975_s_at) / Fold change /veh TPSAB1 /// TPSB2 (11721975_s_at) / RFU GSTM3 (11746129_a_at) / Fold change /veh GSTM3 (11746129_a_at) / RFU IL23R (11737362_x_at) / Fold change /veh IL23R (11737362_x_at) / RFU TMEM51 (11727254_a_at) / Fold change /veh TMEM51 (11727254_a_at) / RFU PIWIL2 (11732686_x_at) / Fold change /veh PIWIL2 (11732686_x_at) / RFU ORM1 (11744905_x_at) / Fold change /veh ORM1 (11744905_x_at) / RFU CCDC152 (11743942_at) / Fold change /veh CCDC152 (11743942_at) / RFU ECM1 (11717891_a_at) / Fold change /veh ECM1 (11717891_a_at) / RFU IL23R (11748794_a_at) / Fold change /veh IL23R (11748794_a_at) / RFU TNFAIP8L3 (11732012_x_at) / Fold change /veh TNFAIP8L3 (11732012_x_at) / RFU MBOAT4 (11741988_at) / Fold change /veh MBOAT4 (11741988_at) / RFU 11764193_at / Fold change /veh 11764193_at / RFU TMEM53 (11763286_at) / Fold change /veh TMEM53 (11763286_at) / RFU MAGEB2 (11727129_at) / Fold change /veh MAGEB2 (11727129_at) / RFU TMEM200A (11744735_a_at) / Fold change /veh TMEM200A (11744735_a_at) / RFU CCDC152 (11751479_a_at) / Fold change /veh CCDC152 (11751479_a_at) / RFU FAM211A (11726209_a_at) / Fold change /veh FAM211A (11726209_a_at) / RFU RGS16 (11746705_a_at) / Fold change /veh RGS16 (11746705_a_at) / RFU VCAN (11755009_s_at) / Fold change /veh VCAN (11755009_s_at) / RFU RHOB (11743442_s_at) / Fold change /veh RHOB (11743442_s_at) / RFU RGS16 (11720943_a_at) / Fold change /veh RGS16 (11720943_a_at) / RFU RGS16 (11720944_at) / Fold change /veh RGS16 (11720944_at) / RFU, VPS4B / Fold change vs veh, VPS4B / RFU, CREB1 / Fold change vs veh, CREB1 / RFU, DNAJC13 / Fold change vs veh, DNAJC13 / RFU, GNAQ / Fold change vs veh, GNAQ / RFU, CDK5R1 / Fold change vs veh, CDK5R1 / RFU, ZRANB3 / Fold change vs veh, ZRANB3 / RFU, CUL4A / Fold change vs veh, CUL4A / RFU, CCNY / Fold change vs veh, CCNY / RFU, UFL1 / Fold change vs veh, UFL1 / RFU, COG3 / Fold change vs veh, COG3 / RFU, DIAPH2 / Fold change vs veh, DIAPH2 / RFU, SKA2 / Fold change vs veh, SKA2 / RFU, AFF3 / Fold change vs veh, AFF3 / RFU, LMF1 / Fold change vs veh, LMF1 / RFU, IPO11 / Fold change vs veh, IPO11 / RFU, DFFB / Fold change vs veh, DFFB / RFU, FOXP1 / Fold change vs veh, FOXP1 / RFU, CARD8 / Fold change vs veh, CARD8 / RFU, STRN3 / Fold change vs veh, STRN3 / RFU, ADK / Fold change vs veh, ADK / RFU, RASSF2 / Fold change vs veh, RASSF2 / RFU, WIPF1 / Fold change vs veh, WIPF1 / RFU, LARP1B / Fold change vs veh, LARP1B / RFU, RASA1 / Fold change vs veh, RASA1 / RFU, RB1 / Fold change vs veh, RB1 / RFU, PPFIA1 / Fold change vs veh, PPFIA1 / RFU, MAT2A / Fold change vs veh, MAT2A / RFU, CCT5 / Fold change vs veh, CCT5 / RFU, WDR92 / Fold change vs veh, WDR92 / RFU, CUX1 / Fold change vs veh, CUX1 / RFU, TTC7A / Fold change vs veh, TTC7A / RFU, TMEM135 / Fold change vs veh, TMEM135 / RFU, DEPTOR / Fold change vs veh, DEPTOR / RFU, CPM / Fold change vs veh, CPM / RFU, DNAJB6 / Fold change vs veh, DNAJB6 / RFU, CACNA2D3 / Fold change vs veh, CACNA2D3 / RFU, DTX4 / Fold change vs veh, DTX4 / RFU, TFCP2 / Fold change vs veh, TFCP2 / RFU, GMCL1 /// GMCL1P1 / Fold change vs veh, GMCL1 /// GMCL1P1 / RFU, AEBP2 / Fold change vs veh, AEBP2 / RFU, SNHG1 /// SNORD22 /// SNORD25 /// SNORD26 /// SNORD27 /// SNORD28 /// SNORD29 /// SNORD31 / Fold change vs veh, SNHG1 /// SNORD22 /// SNORD25 /// SNORD26 /// SNORD27 /// SNORD28 /// SNORD29 /// SNORD31 / Fold change (Aza/veh), C12orf56 (ProbeSet 11735607_a_at) / Fold change (ACY-1035/veh), C12orf56 (ProbeSet 11735607_a_at) / Fold change (Aza/veh), FGFR1OP (ProbeSet 11751329_s_at) / Fold change (ACY-1035/veh), FGFR1OP (ProbeSet 11751329_s_at) / Fold change (Aza/veh), VPS36 (ProbeSet 11739960_a_at) / Fold change (ACY-1035/veh), VPS36 (ProbeSet 11739960_a_at) / RFU SYPL1 (11715823_x_at) / Fold change /veh SYPL1 (11715823_x_at) / RFU IGFBP7 (11715501_s_at) / Fold change /veh IGFBP7 (11715501_s_at) / RFU REEP3 (11722064_at) / Fold change /veh REEP3 (11722064_at) / RFU IGLL1 (11728026_x_at) / Fold change /veh IGLL1 (11728026_x_at): dose or concentration left out as unconfirmed
Settings: MV-4-11 cells, 48 hours

In the case of `Nc1ncn([C@@H]2O[C@H](CO)[C@@H](O)[C@H]2O)c(=O)n1` [azacitidine], the “RFU MYO3A (11730013_a_at)” value is reported as 81.22 RFU.
